Our source for the Ki values is PMC5501398 (PLoS ONE, 2017).

For the assay, the target named is T1, VcIIPK (Vibrio cholerae, UniProt Q9KQJ0).
T1 construct: gene VC_2008
The assay can be described thus: biochemical.

One may read the Ki as a measure of affinity in units of concentration, obtained from inhibition or displacement. Lower therefore signals higher affinity.

T1 sequence (Q9KQJ0 1-481 limits assumed): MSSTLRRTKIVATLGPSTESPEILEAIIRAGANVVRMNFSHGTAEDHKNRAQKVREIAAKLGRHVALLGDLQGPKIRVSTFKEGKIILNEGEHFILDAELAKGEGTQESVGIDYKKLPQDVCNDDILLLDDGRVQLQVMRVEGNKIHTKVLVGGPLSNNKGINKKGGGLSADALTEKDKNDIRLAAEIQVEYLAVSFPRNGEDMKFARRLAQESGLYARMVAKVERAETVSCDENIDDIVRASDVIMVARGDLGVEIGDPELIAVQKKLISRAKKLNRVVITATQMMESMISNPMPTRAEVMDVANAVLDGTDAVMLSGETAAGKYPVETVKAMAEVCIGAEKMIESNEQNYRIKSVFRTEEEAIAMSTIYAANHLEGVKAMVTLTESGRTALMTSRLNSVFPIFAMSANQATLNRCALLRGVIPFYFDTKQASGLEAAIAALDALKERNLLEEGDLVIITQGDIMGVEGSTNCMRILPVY

For `O=C(O)C(=O)O` [oxalate], affinity was put at a Ki of 71 ± 6 µM.
